In patent publication US9684238B2, “Fluorene-type compound, photopolymerization initiator comprising said fluorene-type compound, and photosensitive composition containing said photopolymerization initiator” (TOKYO OHKA KOGYO CO., LTD., priority 2012, dated 2017):

Columns and labels:
[1] = Evaluation 1: 20-μm pattern line width of transparent photosensitive composition; conditions: for sensitivity to the active energy ray (in words): photopolymerization initiator containing the compound; for 20-μm pattern line width: transparent composition, initiator 0.4 mmol
Protocol: After that, the mixture was filtered with a membrane filter having an aperture of 5 μm to provide a photosensitive composition.
It should be noted that the fluorene-based compound as a photopolymerization initiator was used in such an amount that its molar quantity was kept constant in the respective examples and comparative examples.
The glass substrate after the application was dried with a fan dryer at 90° C. for 10 minutes. Thus, a coating film (photosensitive layer) was formed. Next, the film was exposed to light having an exposure energy quantity of 5 mJ/cm^2, 10 mJ/cm^2, 20 mJ/cm^2, 40 mJ/cm^2, 60 mJ/cm^2, or 80 mJ/cm^2 by using a high-pressure mercury lamp (manufactured by Karl Suss, trade name: “MASK ALIGNER”) through a negative mask (mask width: 20 μm). Next, the resultant was immersed in a 0.1 wt % aqueous solution of tetramethylammonium hydroxide (TMAH) and then rinsed with pure water. The remaining cured film was subjected to the following evaluation.
(§1) A larger value for the line width means higher sensitivity.

[2] = Evaluation 3: 20-μm pattern line width of black photosensitive composition; conditions: black composition (carbon black, cardo resin), initiator 0.4 mmol
Text: The mixture was filtered with a membrane filter having an aperture of 5 μm to provide a photosensitive composition.
Photosensitive compositions were each obtained in the same manner as in Example 10 except that the used fluorene-based compound and its usage were changed as shown in Table 5.
Each of the photosensitive compositions obtained in Examples 10 to 15, Examples 2-11 to 2-20, and Comparative Example 3 was applied onto a glass substrate with a spin coater (manufactured by Kyowariken Co., Ltd., trade name: “K-359SD1”) so that its thickness after drying became 1.0 μm. The glass substrate after the application was dried with a fan dryer at 90° C. for 10 minutes. Thus, a coating film (photosensitive layer) was formed. Next, the film was exposed to light having an exposure energy quantity of 10 mJ/cm^2, 20 mJ/cm^2, 40 mJ/cm^2, 60 mJ/cm^2, or 80 mJ/cm^2 by using a high-pressure mercury lamp (manufactured by Karl Suss, trade name: “MASK ALIGNER”) through a negative mask (mask width: 20 μm). Next, the resultant was immersed in a 0.1 wt % aqueous solution of tetra methyl ammonium hydroxide (TMAH) and then rinsed with pure water. The remaining cured film was subjected to the following evaluation. In addition, FIGS. 2, 3, and 6 show microscope photographs of black cured films obtained by using the photosensitive compositions of Examples 10 and 11, and Comparative Example 3, and FIGS. 7 to 11 show microscope photographs of black cured films obtained by using the photosensitive compositions of Examples 2-11, 2-13, 2-14, 2-17, and 2-18.
as §1

[3] = Absorption coefficient (absorbance of 0.001% solution in tetrahydrofuran); type: physicochemical; conditions: for Λ max (absorption maximum wavelength): 0.001% (wt/vol) in tetrahydrofuran, from 280 nm to 400 nm; for Absorption coefficient at 365 nm / Absorption coefficient at Λ max: 0.001% (wt/vol) solution in tetrahydrofuran
Protocol: A 0.001% (wt/vol) solution of each of the compounds 1, 2, 4, 6, 8, 9, 11, 12, 13, 15, 16, D-1, D-3, D-4, D-7, D-8, D-9, D-12, D-14, D-15, D-20, C-1, and C-2 in tetrahydrofuran was prepared, and its absorbance was measured with a spectrophotometer (manufactured by Hitachi High-Technologies Corporation, trade name: “U-3900H”). An absorption maximum wavelength (Amax) at a wavelength of from 280 nm to 400 nm was read from an absorption spectrum obtained with the spectrophotometer.

[4] = Decomposition point by thermal analysis (TG-DTA); type: physicochemical; conditions: 5.0 mg
Protocol: The compounds 1, 2, 4, 6, 8, 9, 11, 12, 13, 15, 16, D-1, D-3, D-4, D-7, D-8, D-9, D-12, D-14, D-15, D-20, C-1, and C-2 were each subjected to measurement with a thermal analysis apparatus (TG-DTA) (manufactured by Rigaku Corporation, trade name: “Thermo Plus EVO TG 8120”) by using 5.0 mg thereof.

[5] = Average transmittance of composition; type: physicochemical; conditions: photosensitive composition, quartz cell, optical path length 1 cm
Protocol: The average transmittance (%) of each of the photosensitive resin compositions obtained in Examples 1 to 9, Examples 2-1 to 2-10, and Comparative Examples 1 and 2 in the range of from 400 nm to 700 nm was measured with a spectrophotometer (manufactured by Hitachi High-Technologies Corporation, trade name: “U-3900H”, quartz cell, optical path length; 1 cm).

[6] = Transmittance of transparent cured film; type: physicochemical; conditions: for Average transmittance (700 nm to 400 nm) Transparent cured film / Transmittance (400 nm) Transparent cured film: cured at exposure energy quantity 80 mJ/cm^2; for transparency of photosensitive composition and formed product (in words): photopolymerization initiator containing the compound
Protocol: Transparent cured films were formed by using the photosensitive compositions obtained in Examples 1 to 9, Examples 2-1 to 2-10, and Comparative Examples 1 and 2 in the same manner as in the evaluation 1 except that the exposure energy quantity was set to 80 mJ/cm^2. The transmittance (%) of each of the resultant transparent cured films at 400 nm and the average transmittance (%) thereof in the range of from 400 to 700 nm were measured with a spectrophotometer (manufactured by Hitachi High-Technologies Corporation, trade name: “U-3900H”, quartz cell, optical path length; 1 cm). A higher transmittance at 400 nm means less coloring with a yellow color. In addition, a higher transmittance of a coating film means a higher transmitting property of a pattern to be formed.

[7] = Solubility in PGME, PGMEA and ethyl lactate; type: physicochemical; conditions: for solubility (in words): photopolymerization initiator containing the compound; for Solubility Ethyl lactate: in 100 parts by weight of ethyl lactate; for Solubility Ethyl lactate / Solubility PGMEA / Solubility PGME: room temperature; for Solubility PGMEA: in 100 parts by weight of propylene glycol monomethyl ether acetate; for Solubility PGME: in 100 parts by weight of propylene glycol monomethyl ether
Protocol: An evaluation for solubility was performed in accordance with the following evaluation criteria based on the dissolution amount.
A: 10 Parts by weight or more of the photopolymerization initiator is dissolved.
B: An amount in the range of from 5 parts by weight or more to less than 10 parts by weight of the photopolymerization initiator is dissolved.
C: An amount in the range of from 2 parts by weight or more to less than 5 parts by weight of the photopolymerization initiator is dissolved.
D: Less than 2 parts by weight of the photopolymerization initiator is dissolved.

[8] = exposure energy quantity 10 mJ/cm^2
[9] = exposure energy quantity 20 mJ/cm^2
[10] = exposure energy quantity 40 mJ/cm^2
[11] = exposure energy quantity 60 mJ/cm^2
[12] = exposure energy quantity 80 mJ/cm^2

Λ max (absorption maximum wavelength) [3] [nm] | Absorption coefficient at 365 nm [3] [mL/mg/cm] | Absorption coefficient at Λ max [3] [mL/mg/cm] | Decomposition point [4] [°C] | Average transmittance (700 nm to 400 nm) Solution [5] [%] | Average transmittance (700 nm to 400 nm) Transparent cured film [6] [%] | Transmittance (400 nm) Transparent cured film [6] [%] | SMILES | sensitivity to the active energy ray (in words) [1] | 20-μm pattern line width ([2]; 10 mJ/cm^2) | 20-μm pattern line width ([2]; 20 mJ/cm^2) | 20-μm pattern line width ([2]; 40 mJ/cm^2) | 20-μm pattern line width ([2]; 60 mJ/cm^2) | 20-μm pattern line width ([2]; 80 mJ/cm^2) | 20-μm pattern line width [1, 8] | 20-μm pattern line width [1, 9] | 20-μm pattern line width [1, 10] | 20-μm pattern line width [1, 11] | 20-μm pattern line width [1, 12] | further results
– | – | – | – | – | – | – | CCCC1(CCC)c2cc(C(=NOC(C)=O)c3ccc(C(C)(C)C)cc3)ccc2-c2ccc([N+](=O)[O-])cc21 [Compound D-2] | additionally high sensitivity to the active energy ray | 19.4 | 20.4 | 21.6 | 22.1 | 23.0 | – | – | – | – | – | –
338.5 | 9.2 | 36.3 | 167.1 | 79.2 | 99.4 | 97.0 | CCCCCCC1(CCCCCC)c2cc(C(=O)C(=NOC(C)=O)c3cc(C)ccc3C)ccc2-c2ccc(C(=O)c3ccc([N+](=O)[O-])cc3)cc21 [Compound 13] | – | – | – | – | – | – | 19.4 | 19.6 | 19.8 | 20.6 | 21.0 | –
– | – | – | – | 88.7 | 99.3 | 92.0 | CCCC1(CCC)c2cc(C(=NOC(C)=O)c3ccccc3C)ccc2-c2ccc([N+](=O)[O-])cc21 [Compound 1] | additionally high sensitivity to the active energy ray | 20.2 | 21.2 | 22.1 | 23.2 | 23.3 | 20.7 | 21.6 | 22.6 | 23.3 | 23.8 | solubility (in words) [7]: additionally excellent solubility
315.0 | 0.0 | 70.0 | 280.0 | – | – | – | CCCC1(CCC)c2ccccc2-c2ccc(/C(C)=N/OC(C)=O)cc21 [Compound 15] | – | – | – | – | – | – | – | – | – | – | – | Solubility Ethyl lactate [7]: D (Less than 2 parts by weight of the photopolymerization initiator is dissolved.); Solubility PGMEA [7]: C (An amount in the range of from 2 parts by weight or more to less than 5 parts by weight of the photopolymerization initiator is dissolved.); Solubility PGME [7]: D (Less than 2 parts by weight of the photopolymerization initiator is dissolved.)
– | – | – | – | 95.4 | 100.0 | 100.0 | CCCCCCC1(CCCCCC)c2cc(C(=O)c3ccccc3)ccc2-c2ccc(C(C)=NOC(C)=O)cc21 [Compound 8] | additionally high sensitivity to the active energy ray | 19.6 | 20.1 | 21.7 | 22.7 | 23.0 | 19.6 | 20.1 | 21.7 | 22.7 | 23.0 | solubility (in words) [7]: additionally excellent solubility; transparency of photosensitive composition and formed product (in words) [6]: additionally excellent transparency
– | – | – | – | 95.4 | 97.3 | 99.6 | CCCCCCC1(CCCCCC)c2cc(C(=O)c3ccccc3C)ccc2-c2ccc(C(C)=NOC(C)=O)cc21 [Compound 6] | – | 19.7 | 20.2 | 21.1 | 21.7 | 22.7 | 19.7 | 20.2 | 21.1 | 21.7 | 22.7 | transparency of photosensitive composition and formed product (in words) [6]: additionally excellent transparency
296.5 | 0.1 | 97.7 | 240.9 | – | – | – | CC(=O)ON=C(C)c1ccc2c(c1)Cc1ccccc1-2 [Compound 16] | – | – | – | – | – | – | – | – | – | – | – | Solubility Ethyl lactate [7]: C (An amount in the range of from 2 parts by weight or more to less than 5 parts by weight of the photopolymerization initiator is dissolved.); Solubility PGMEA [7]: B (An amount in the range of from 5 parts by weight or more to less than 10 parts by weight of the photopolymerization initiator is dissolved.); Solubility PGME [7]: B (An amount in the range of from 5 parts by weight or more to less than 10 parts by weight of the photopolymerization initiator is dissolved.)
– | – | – | – | 87.5 | 99.3 | 92.8 | CCCCCCC1(CCCCCC)c2cc(C(=NOC(C)=O)c3ccccc3C)ccc2-c2ccc([N+](=O)[O-])cc21 [Compound 2] | additionally high sensitivity to the active energy ray | – | 20.9 | 22.1 | 22.8 | 23.3 | 21.4 | 22.3 | 22.9 | 23.9 | 24.4 | –
